Laboratory results taken from EP0372582A2, “6-Aminoalkyl carbapenems” (Bristol-Myers Squibb Company, priority 1988, dated 1990).
Where two headings read alike, the source gives them in different places.

Legend:
[1] = Blood concentration parameters after administration to mice; assay type: in vivo; details: for Cmax / AUC / half-life: mouse, mice; for half-life: blood half-life
Description: […] "Cmax" is the maximum concentration achieved, "t1/2" is the half-life or time for half of the absorbed material to disappear from the blood stream.

[2] = test system: E. coli; assay: Protective dose (PD50) in infected animals; assay type: in vivo, mice; parameters: unit not given here
Description: The PD₅₀ values are protective doses, or the dose of test compound which secures survival of 50% of the animals of a test group, usually mice, during a designated period of time after being infected with an inoculum of infectious organism which will result in death of all inoculated untreated animals during that test period.

[3] = Chemical stability in aqueous solution (half-life); assay type: physicochemical
Protocol: Chemical stability in aqueous solution at pH 7.4 and pH 2.0 is reported as half-life (t1/2). These values are determined by interpolation from a graph of concentration of test substance remaining in solution after storage under selected conditions for various periods of time.

[4] = test system: Staph. serum; assay: M.I.C., tube dilution method in Nutrient Broth; assay type: cell-based
Protocol: (§1) The following procedures illustrate the application of the process of this invention to the preparation of a variety of compounds of Formula V. In many instances, data illustrating the biological activity of the substances as antibiotics are presented. […] It is determined by interpolation from a graph of concentration versus number of cells following exposure of the organism to the test compound under growth conditions. Another parameter such as optical density which is proportional to the cell count may be used. In some instances MIC₉₀ values are also given. The latter refers to 90% growth inhibition.

[5] = test system: Str. pneu. A9585; assay: M.I.C., tube dilution method in Nutrient Broth; assay type: cell-based; details: unit assumed
Protocol: as §1

[6] = test system: K. pneu. A9664; assay: M.I.C., tube dilution method in Nutrient Broth; assay type: cell-based; details: unit assumed
Protocol: as §1

[7] = test system: P. morg. A15153; assay: M.I.C., tube dilution method in Nutrient Broth; assay type: cell-based; details: unit assumed
Protocol: as §1

[8] = test system: Staph aur. MR; assay: M.I.C., tube dilution method in Nutrient Broth; assay type: cell-based; details: unit assumed
Protocol: as §1

[9] = test system: Ser. mars. A20019; assay: M.I.C., tube dilution method in Nutrient Broth; assay type: cell-based; details: unit assumed
Protocol: as §1

[10] = test system: Staph. aur. A9537; assay: M.I.C., tube dilution method in Nutrient Broth; assay type: cell-based; details: unit assumed
Protocol: as §1

[11] = test system: P. mir. A9900; assay: M.I.C., tube dilution method in Nutrient Broth; assay type: cell-based; details: unit assumed
Protocol: as §1

[12] = test system: Ent. clo. A9656; assay: M.I.C., tube dilution method in Nutrient Broth; assay type: cell-based; details: unit assumed
Protocol: as §1

[13] = test system: Staph aur. Pen+; assay: M.I.C., tube dilution method in Nutrient Broth; assay type: cell-based; details: unit assumed
Protocol: as §1

[14] = test system: Ps. aeru. A9843; assay: M.I.C., tube dilution method in Nutrient Broth; assay type: cell-based; details: unit assumed
Protocol: as §1

[15] = test system: E. coli A15119; assay: M.I.C., tube dilution method in Nutrient Broth; assay type: cell-based; details: unit assumed
Protocol: as §1

[16] = test system: K. pneu. A20468; assay: M.I.C., tube dilution method in Nutrient Broth; assay type: cell-based; details: unit assumed
Protocol: as §1

[17] = test system: E. coli A20341; assay: M.I.C., tube dilution method in Nutrient Broth; assay type: cell-based; details: unit assumed
Protocol: as §1

[18] = test system: Str. pyo. A9604; assay: M.I.C., tube dilution method in Nutrient Broth; assay type: cell-based; details: unit assumed
Protocol: as §1

[19] = test system: Ent. clo. A9659; assay: M.I.C., tube dilution method in Nutrient Broth; assay type: cell-based; details: unit assumed
Protocol: as §1

[20] = test system: P. vul. A21559; assay: M.I.C., tube dilution method in Nutrient Broth; assay type: cell-based; details: unit assumed
Protocol: as §1

[21] = test system: Str. faec. A20688; assay: M.I.C., tube dilution method in Nutrient Broth; assay type: cell-based; details: unit assumed
Protocol: as §1

[22] = test system: P. rett. A22424; assay: M.I.C., tube dilution method in Nutrient Broth; assay type: cell-based; details: unit assumed
Protocol: as §1

[23] = blood, PO, 50 mg/kg, read-out: Cmax, PO/50
[24] = citric acid buffer, pH 2, 37°C, pH 2.0 citric acid buffer, by hplc, read-out: t1/2, pH 2
[25] = phosphate buffer, pH 7.4, 37°C, pH 7.4 phosphate buffer, by uv, read-out: t1/2, pH 7.4 (converted)
[26] = 37°C, pH 2.0 citric acid buffer, by hplc, read-out: t1/2, pH 2
[27] = 37°C, pH 7.4 phosphate buffer, by uv, read-out: t1/2, pH 7.4 (converted)

In the case of `CSC1=C(C(=O)O)N2C(=O)[C@H]([C@@H](C)NC(=O)CNC(=O)[C@H](C)N)[C@H]2[C@H]1C` [Procedure 38, (5S,6R) 6-(1′R-(L-alanylglycyl)aminoethyl)-4R-methyl-3-methylthio-7-oxo-1-azabicyclo[3.2.0]hept-2-ene--2-carboxylic Acid], the Cmax [1, 23] is reported as 2000 ng/mL, the “PD50, E. coli” value ([2]; IM) is reported as 12.50 and the “PD50, E. coli” value ([2]; PO) is reported as 25.00. The half-life [3, 24] was less than 0.0833 h and the half-life [3, 25] was 29 h.
For `C[C@@H](N)[C@H]1C(=O)N2C(C(=O)O)=C(SCCF)[C@H](C)[C@H]12` [Procedure 23], the “M.I.C. Staph. serum” value [4] was 16.000.
In the case of `CSC1=C(C(=O)O)N2C(=O)[C@H]([C@@H](C)N)[C@H]2[C@H]1C` [Procedure 9, (5S,6R) 6-(1′R-Aminoethyl)-4R-methyl-3-methylthio-7-oxo-1-azabicyclo[3.2.0]hept-2-ene-2-carboxylic Acid], the AUC ([1]; blood, PO, 50 mg/kg) is reported as 5000 ng·h/mL, the Cmax [1, 23] is reported as 9000 ng/mL and the half-life ([1]; PO, 50 mg/kg) is reported as 0.3 h. For the same compound, the “PD50, E. coli” value ([2]; IM) was 25.00, the “PD50, E. coli” value ([2]; PO) was 12.50 and the half-life [3, 24] was 3.53 h. It also gave a half-life ([3]; phosphate buffer, pH 7.4, 22°C, pH 7.4 phosphate buffer, read-out: half-life (converted)) of 39 h and a half-life [3, 25] of 6.8 h.
`CSC1=C(C(=O)O)N2C(=O)[C@H]([C@H](C)O)[C@H]2[C@H]1C` [Procedure 4, (5S,6S) Potassium 6-(1′S-hydroxyethyl)-4R-methyl-3-methylthio-7-oxo-1-azabicyclo[3.2.0]hept-2-ene-2-carboxylate] gave a half-life [3, 25] of 160 h.
For `CSC1=C(C(=O)[O-])N2C(=O)[C@H]([C@H](C)[N+](C)(C)C)[C@H]2[C@H]1C` [Procedure 59, (5S,6R) 6-(1′S-N-Trimethylammonium-ethyl)-4R-methyl-3-methylthio-7-oxo-1-azabicyclo[3.2.0]hept-2-ene-2-carboxylate], the “M.I.C. Staph. serum” value [4] was 8.000.
For `CCSC1=C(C(=O)O)N2C(=O)[C@H]([C@H](C)N)[C@H]2[C@H]1C` [Procedure 60, (5S,6R) 6-(1′S-aminoethyl)-3-ethylthio-4R-methyl-7-oxo-1-azabicyclo[3.2.0]hept-2-ene-2-carboxylic acid], the “M.I.C. Staph. serum” value [4] was 8.000.
Compound `C[C@@H](N)[C@H]1C(=O)N2C(C(=O)O)=C(SCc3cccnc3)[C@H](C)[C@H]12` [Procedure 21, (5S,6R)-6-(1′R-Aminoethyl)-4R-methyl-3-[(pyridin-3-yl)methyl-thio]-7-oxo-1-azabicyclo[3,2,0]hept-2-ene-2-carboxylic Acid] has a U.R. ([1]; listed after the PO/50 lines, abbreviation not defined) of 5, a half-life ([1]; 20 mg/kg, IM/20) of 0.2 h and an AUC ([1]; blood, 20 mg/kg, IM/20) of 7000 ng·h/mL. It also gave a Cmax ([1]; blood, 20 mg/kg, IM/20, read-out: Cmax, IM/20) of 18000 ng/mL, an AUC ([1]; blood, PO, 50 mg/kg) of 21000 ng·h/mL and a Cmax [1, 23] of 25000 ng/mL. The half-life ([1]; PO, 50 mg/kg) was 0.383 h, the “PD50, E. coli” value ([2]; PO) was 8.10 and the half-life [3, 24] was 2.4 h. The half-life [3, 25] was 3 h.
In the case of `CSC1=C(C(=O)O)N2C(=O)[C@H]([C@H](C)NC(=O)CNC(=O)[C@@H](N)CC(C)C)[C@H]2[C@H]1C` [Procedure 61, (5S,6R) 6-(1′S-(L-Leucylglycyl)aminoethyl)-4R-methyl-3-methylthio-7-oxo-1-azabicyclo[3.2.0]hept-2-ene-2-carboxylic Acid], the “M.I.C. Staph. serum” value [4] is reported as 63.000.
With `C[C@H](N)[C@H]1C(=O)N2C(C(=O)O)=C(SCCC#N)[C@H](C)[C@H]12` [Procedure 35, (5S,6R) 6-(1′S-Aminoethyl)-3-(2-cyanoethylthio)-4R-methyl-7-oxo-1-azabicyclo[3.2.0]hept-2-ene-2-carboxylic Acid] the half-life [3, 26] was 0.583 h and the half-life [3, 27] was 1.5 h.
In the case of `CSC1=C(C(=O)O)N2C(=O)[C@H]([C@@H](C)NC(=O)[C@H](CC(C)C)NC(=O)[C@H](C)N)[C@H]2[C@H]1C` [Procedure 39, (5S,6R)-6-{1′R-(L-Alanyl-L-leucyl)aminoethyl}-4R-methyl-3-methylthio-7-oxo-1-azabicyclo[3.2.0]hept-2-ene-2-carboxylic Acid], the Cmax [1, 23] is reported as 2000 ng/mL, the “PD50, E. coli” value ([2]; IM) is reported as 25.00 and the “PD50, E. coli” value ([2]; PO) is reported as 25.00. For the same compound, the half-life [3, 24] was less than 0.0833 h and the half-life [3, 25] was 46 h.
With `C[C@@H](N)[C@H]1C(=O)N2C(C(=O)O)=C(SCCC#N)[C@H](C)[C@H]12` [Procedure 26, (5S,6R)-6-(1′R-Aminoethyl)-3-(2-cyanoethylthio)-4R-methyl-7-oxo-1-azabicyclo[3.2.0]hept-2-ene-2-carboxylic Acid] the half-life [3, 24] was 2.93 h and the half-life [3, 25] was 2.8 h.
Work on `CCSC1=C(C(=O)O)N2C(=O)[C@H]([C@@H](C)N)[C@H]2[C@H]1C` [Procedure 7, (5S,6R) 6-(1′R-Aminoethyl)-3-ethylthio-4R-methyl-7-oxo-1-azabicyclo[3.2.0]hept-2-ene-2-carboxylic Acid] yielded a half-life [3, 24] of 2.8 h and a half-life [3, 25] of 4.3 h.
For `CSC1=C(C(=O)O)N2C(=O)[C@H]([C@@H](C)NC(=O)CNC(=O)[C@@H](N)CC(C)C)[C@H]2[C@H]1C` [Procedure 37], the “M.I.C. Staph. serum” value [4] was 16.000.
For `CC[C@H]1C(SC)=C(C(=O)O)N2C(=O)[C@H]([C@H](C)N)[C@@H]12` [Procedure 49, (5S,6R) 6-(1′S-Aminoethyl)-4R-ethyl-3-methylthio-7-oxo-1-azabicyclo[3.2.0]hept-2-ene-2-carboxylic Acid], the “M.I.C. Staph. serum” value [4] was 63.000.
With `CC[C@H]1C(SCc2cn(C)nn2)=C(C(=O)O)N2C(=O)[C@H]([C@H](C)N)[C@@H]12` [Procedure 52, (5S,6R) 6-(1′S-Aminoethyl)-4R-ethyl-3-[(1-metyl-1,2,3-triazol-4-yl)-methylthio]-7-oxo-1-azabicyclo[3.2.0]hept-2-ene-2-carboxylate] the M.I.C. Str. pneu. A9585 [5] was 8 µg/mL, the M.I.C. Staph. serum ([4]; unit assumed) was 63 µg/mL and the M.I.C. K. pneu. A9664 [6] was 1 µg/mL. It also gave a M.I.C. P. morg. A15153 [7] of 0.5 µg/mL, a M.I.C. Staph aur. MR [8] of 125 µg/mL and a M.I.C. Ser. mars. A20019 [9] of 1 µg/mL. The M.I.C. Staph. aur. A9537 [10] was 32 µg/mL, the M.I.C. P. mir. A9900 [11] was 0.25 µg/mL and the M.I.C. Ent. clo. A9656 [12] was 1 µg/mL. For the same compound, the M.I.C. Staph aur. Pen+ [13] was 125 µg/mL, the M.I.C. Ps. aeru. A9843 [14] was 32 µg/mL and the M.I.C. E. coli A15119 [15] was 0.5 µg/mL. For the same compound, the M.I.C. K. pneu. A20468 [16] was 2 µg/mL, the M.I.C. E. coli A20341 [17] was 0.5 µg/mL and the M.I.C. Str. pyo. A9604 [18] was 16 µg/mL. The M.I.C. Ent. clo. A9659 [19] was 2 µg/mL, the M.I.C. P. vul. A21559 [20] was 0.25 µg/mL and the M.I.C. Str. faec. A20688 [21] was 125 µg/mL. For the same compound, the M.I.C. P. rett. A22424 [22] was 4 µg/mL.
With `C[C@@H](N)C1C(=O)N2C(C(=O)O)=C(SCc3ccccc3)[C@H](C)[C@H]12` (stereo in doubt) [Procedure 12, (5S,6S) 6-(1′R-Aminoethyl)-3-benzylthio-4R-methyl-7-oxo-1-azabicyclo[3.2.0]hept-2-ene-2-carboxylic Acid] the AUC ([1]; in vivo, PO, 50 mg/kg) was 11000 ng·h/mL, the half-life ([1]; in vivo, PO, 50 mg/kg) was 0.217 h and the Cmax ([1]; in vivo, PO, 50 mg/kg, read-out: Cmax, PO/50) was 33000 ng/mL. It also gave a half-life [3, 26] of 2.4 h and a half-life [3, 27] of 4.1 h.
For `CSC1=C(C(=O)O)N2C(=O)[C@H]([C@H](C)N)[C@H]2[C@H]1C` [Procedure 57, (5S,6R) 6-(1S-Aminoethyl)-4R-methyl-3-methylthio-7-oxo-1-1-azabicyclo[3.2.0]hept-2-ene-2-carboxylate], the “M.I.C. Staph. serum” value [4] was 16.000.
In the case of `C[C@H](N)[C@H]1C(=O)N2C(C(=O)O)=C(SCc3cccnc3)[C@H](C)[C@H]12` [Procedure 58], the “M.I.C. Staph. serum” value [4] is reported as 4.000.
For `CSC1=C(C(=O)[O-])N2C(=O)[C@H]([C@@H](C)[N+](C)(C)C)[C@H]2[C@H]1C` [Procedure 36], the “M.I.C. Staph. serum” value [4] was 63.000.
